Reference: ChEMBL document CHEMBL1201862, “PubChem BioAssay data set” (2004)
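Step 1: Grow cells in 96-well plates. Step 2: Expose to compound for 48 hours at 5 concentrations. Step 3: Interpolate endpoints linearly; if unreached, use highest concentration. Abbreviation: GI50, concentration required for 50% inhibition of growth.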 Calls of active or inactive are those of the source. Cut-off read from the data, not from the text of the source: active = GI50 up to about 1.1 µM and inactive = higher.

Experiments:
Assay in all cases: DTP human tumour cell line panel, 48 h
HT-29 = system: HT-29
NCI-H522 = system: NCI-H522
Malme-3M = system: Malme-3M
BT-549 = system: BT-549
HOP-62 = system: HOP-62
HCT-15 = system: HCT-15
IGROV-1 = system: IGROV-1
MDA-MB-435 = system: MDA-MB-435
A549 = system: A549
Hs-578T = system: Hs-578T
KM12 = system: KM12
EKVX = system: EKVX
NCI-H226 = system: NCI-H226
CAKI-1 = system: CAKI-1
SK-MEL-28 = system: SK-MEL-28
NCI/ADR-RES = system: NCI/ADR-RES
PC-3 = system: PC-3
SK-OV-3 = system: SK-OV-3
HL-60 = system: HL-60
UACC-257 = system: UACC-257

SMILES	GI50 (HT-29)	GI50 (NCI-H522)	GI50 (Malme-3M)	GI50 (BT-549)	GI50 (HOP-62)	GI50 (HCT-15)	GI50 (IGROV-1)	GI50 (MDA-MB-435)	GI50 (A549)	GI50 (Hs-578T)	GI50 (KM12)	GI50 (EKVX)	GI50 (NCI-H226)	GI50 (CAKI-1)	GI50 (SK-MEL-28)	GI50 (NCI/ADR-RES)	GI50 (PC-3)	GI50 (SK-OV-3)	GI50 (HL-60)	GI50 (UACC-257)
C(=C\c1ccccc1)/C=N/c1ccc2c(c1)Cc1ccccc1-2	> 100 µM (inactive)	36.8 µM (inactive)	> 100 µM (inactive)	60.4 µM (inactive)	> 100 µM (inactive)	> 100 µM	61.5 µM (inactive)	58.1 µM (inactive)	> 100 µM (inactive)	50.8 µM (inactive)	> 100 µM (inactive)	49.1 µM (inactive)	> 100 µM (inactive)	> 100 µM (inactive)	97.3 µM (inactive)	51.3 µM (inactive)	69 µM (inactive)	–	–	–
S=c1[nH]c(=S)c2cc(Sc3ccc4[nH]c(=S)[nH]c(=S)c4c3)ccc2[nH]1	41 µM (inactive)	34.8 µM (inactive)	55.3 µM (inactive)	31.2 µM (inactive)	–	39.2 µM	30 µM (inactive)	53 µM (inactive)	59.7 µM (inactive)	22 µM (inactive)	24 µM (inactive)	42.2 µM (inactive)	20.4 µM (inactive)	36.6 µM (inactive)	53.8 µM (inactive)	> 100 µM (inactive)	52.5 µM (inactive)	24.3 µM (inactive)	20.8 µM (inactive)	43.3 µM (inactive)
COc1cc(C2SCC(=O)N2c2ccc(NC(C)=O)cc2)cc(OC)c1OC (centres undefined)	90.4 µM (inactive)	71.4 µM (inactive)	–	36.6 µM (inactive)	–	94.2 µM	> 100 µM (inactive)	52.7 µM (inactive)	> 100 µM (inactive)	> 100 µM (inactive)	> 100 µM (inactive)	> 100 µM (inactive)	> 100 µM (inactive)	65.2 µM (inactive)	> 100 µM (inactive)	88.3 µM (inactive)	> 100 µM (inactive)	> 100 µM (inactive)	> 100 µM (inactive)	> 100 µM (inactive)
COc1ccc(Cc2c(N)[nH]c(=O)n(C)c2=O)cc1	47.5 µM (inactive)	> 100 µM (inactive)	> 100 µM (inactive)	> 100 µM (inactive)	31.1 µM (inactive)	92.7 µM	> 100 µM (inactive)	> 100 µM (inactive)	> 100 µM (inactive)	45.1 µM (inactive)	> 100 µM (inactive)	10.6 µM (inactive)	> 100 µM (inactive)	96.6 µM (inactive)	> 100 µM (inactive)	> 100 µM (inactive)	97.3 µM (inactive)	> 100 µM (inactive)	–	> 100 µM (inactive)
COc1ccc(S(=O)(=O)NC(CCC(=O)NN)C(=O)NN)cc1 (centres undefined)	> 100 µM (inactive)	> 100 µM (inactive)	> 100 µM (inactive)	> 100 µM (inactive)	> 100 µM (inactive)	> 100 µM	> 100 µM (inactive)	> 100 µM (inactive)	> 100 µM (inactive)	> 100 µM (inactive)	> 100 µM (inactive)	> 100 µM (inactive)	–	> 100 µM (inactive)	> 100 µM (inactive)	> 100 µM (inactive)	> 100 µM (inactive)	> 100 µM (inactive)	> 100 µM (inactive)	> 100 µM (inactive)
CC(C)(C)OC(=O)N(CCCN)CCCCN(CCCN)C(=O)OC(C)(C)C	> 100 µM (inactive)	> 100 µM (inactive)	–	> 100 µM (inactive)	> 100 µM (inactive)	> 100 µM	> 100 µM (inactive)	> 100 µM (inactive)	> 100 µM (inactive)	> 100 µM (inactive)	> 100 µM (inactive)	> 100 µM (inactive)	> 100 µM (inactive)	> 100 µM (inactive)	> 100 µM (inactive)	> 100 µM (inactive)	> 100 µM (inactive)	> 100 µM (inactive)	> 100 µM (inactive)	> 100 µM (inactive)
C/C(=C\c1csc(C)n1)[C@@H]1C[C@@H]2O[C@@H]2CCC[C@H](C)[C@H](O)[C@@H](C)C(=O)C(C)(C)[C@@H](O)CC(=O)O1 [EPOTHILONE A]	< 0.0001 µM (active)	< 0.0001 µM (active)	–	< 0.0001 µM (active)	< 0.0001 µM (active)	< 0.0001 µM	< 0.0001 µM (active)	< 0.0001 µM (active)	< 0.0001 µM (active)	< 0.0001 µM (active)	< 0.0001 µM (active)	< 0.0001 µM (active)	< 0.0001 µM (active)	< 0.0001 µM (active)	–	0.000113 µM (active)	< 0.0001 µM (active)	< 0.0001 µM (active)	< 0.0001 µM (active)	< 0.0001 µM (active)
